Reference: ChEMBL document CHEMBL1201862, “PubChem BioAssay data set” (2004)
The source made the active and inactive calls.

How the values were obtained:
[1] = Intein inhibitors as potential Tuberculosis drugs, a cytotoxicity screen. [Related pubchem assays (depositor defined):AID2221, AID2223, AID434968, AID435010, AID449749, AID449750, AID489010]; assay type: functional
[2] = control 3'UTR Renilla luciferase suppression, dose response, counter-screen for Shn3 inhibitor project, cell-based, Clone20-Shn3RL, cherry-picked (AID 624133); assay type: functional
Vero = Vero cell cytotoxicity, cytotoxicity control for flavivirus capping enzyme inhibitors (AID 588742); assay type: functional; conditions: Chlorocebus sabaeus
Genome polyprotein = Genome polyprotein (dengue virus type 2, UniProt P29990); experiment: Dengue-2 NS5 methyltransferase inhibitors, primary screen, biochemical, confirmation dose response (AID 588689); assay type: functional
Genome polyprotein, sequence (P29990 2492-3391 limits assumed): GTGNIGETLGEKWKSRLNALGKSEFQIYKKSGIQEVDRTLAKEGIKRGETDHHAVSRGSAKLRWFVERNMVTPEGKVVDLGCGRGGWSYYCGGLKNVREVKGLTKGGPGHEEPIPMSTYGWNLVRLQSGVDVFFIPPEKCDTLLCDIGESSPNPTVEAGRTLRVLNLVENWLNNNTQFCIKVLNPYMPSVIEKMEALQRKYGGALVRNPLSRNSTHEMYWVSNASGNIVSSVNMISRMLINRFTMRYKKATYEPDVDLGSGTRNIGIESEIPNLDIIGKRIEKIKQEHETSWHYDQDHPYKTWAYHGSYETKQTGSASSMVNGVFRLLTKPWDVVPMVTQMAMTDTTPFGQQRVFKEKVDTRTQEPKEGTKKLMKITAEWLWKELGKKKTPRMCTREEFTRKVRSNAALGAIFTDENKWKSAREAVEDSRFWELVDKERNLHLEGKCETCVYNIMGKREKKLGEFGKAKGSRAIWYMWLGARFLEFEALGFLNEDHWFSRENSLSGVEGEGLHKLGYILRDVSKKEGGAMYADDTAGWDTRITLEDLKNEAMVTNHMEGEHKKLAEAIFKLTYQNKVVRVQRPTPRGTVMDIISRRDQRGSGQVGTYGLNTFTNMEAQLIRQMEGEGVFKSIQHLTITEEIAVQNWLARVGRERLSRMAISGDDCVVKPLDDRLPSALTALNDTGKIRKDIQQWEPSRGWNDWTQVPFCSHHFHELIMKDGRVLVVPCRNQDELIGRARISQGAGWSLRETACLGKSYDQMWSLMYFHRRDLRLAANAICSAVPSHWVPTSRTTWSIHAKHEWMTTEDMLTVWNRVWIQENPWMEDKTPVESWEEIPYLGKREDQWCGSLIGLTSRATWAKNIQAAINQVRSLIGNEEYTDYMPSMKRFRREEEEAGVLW

Bcl-2-related protein A1 = target: T1, Bcl-2-related protein A1 (Mus musculus, UniProt Q07440); assay type: functional;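 note: confirmatory dose–response counterscreen on Bfl-1, used to check hits from a UBC13 polyubiquitin inhibitor campaign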
T1 sequence (Q07440 whole entry): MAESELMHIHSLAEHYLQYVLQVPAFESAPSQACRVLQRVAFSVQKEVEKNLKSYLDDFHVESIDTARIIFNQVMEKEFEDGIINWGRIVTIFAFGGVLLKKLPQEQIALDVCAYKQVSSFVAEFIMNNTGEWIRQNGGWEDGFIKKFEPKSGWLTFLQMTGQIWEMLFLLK

[3] = Shn3 3'UTR reporter inhibitors, dose response, cell-based, Clone20 osteoblasts, firefly luciferase, cherry-picked (AID 624132); assay type: functional;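 note: firefly luciferase luminescence from reporter carrying the Shn3 3'UTR in osteoblasts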
[4] = target: T2, Ubiquitin-conjugating enzyme E2 N (Homo sapiens, UniProt P61088); assay type: functional
T2 sequence (P61088 whole entry): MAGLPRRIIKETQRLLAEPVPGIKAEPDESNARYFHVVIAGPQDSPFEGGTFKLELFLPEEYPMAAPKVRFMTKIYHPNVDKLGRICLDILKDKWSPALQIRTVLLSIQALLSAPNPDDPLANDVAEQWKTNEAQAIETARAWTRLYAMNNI

[5] = target: T2, Ubiquitin-conjugating enzyme E2 N; assay type: functional; remark: listed apart in the source
[6] = target: Hepatocyte nuclear factor 4-alpha (Homo sapiens, UniProt P41235); assay type: functional, cell-based;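 note: biochemical luminescence-based dose-response counterscreen measuring inhibition of HNF4 dimerization, run alongside a screen for blockers of ABHD5–perilipin-5 interaction; split luciferase complementation of HNF4 fusion proteins in cell lysate measuring dimerization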
Hepatocyte nuclear factor 4-alpha, sequence (P41235 whole entry, the tested form may be a part): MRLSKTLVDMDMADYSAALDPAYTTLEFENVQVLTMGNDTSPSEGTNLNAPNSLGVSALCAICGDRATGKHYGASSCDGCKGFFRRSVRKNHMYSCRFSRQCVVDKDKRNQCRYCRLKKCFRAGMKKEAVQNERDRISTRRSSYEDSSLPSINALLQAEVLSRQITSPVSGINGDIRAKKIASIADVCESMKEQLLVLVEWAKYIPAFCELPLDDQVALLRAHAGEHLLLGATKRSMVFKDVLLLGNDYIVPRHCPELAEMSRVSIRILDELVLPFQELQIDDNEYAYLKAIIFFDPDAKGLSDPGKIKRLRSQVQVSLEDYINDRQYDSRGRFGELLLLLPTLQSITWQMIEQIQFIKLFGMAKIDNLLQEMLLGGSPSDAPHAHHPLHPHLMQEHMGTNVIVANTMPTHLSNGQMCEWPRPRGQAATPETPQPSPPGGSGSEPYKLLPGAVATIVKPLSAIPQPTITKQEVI

[7] = target: T3, Replicative DNA helicase DnaB (Mycobacterium tuberculosis, UniProt P9WMR3); experiment: DnaB intein splicing inhibitors, dose response, biochemical, cell-free fluorescence (AID 449749); assay type: functional
T3 sequence (P9WMR3 whole entry): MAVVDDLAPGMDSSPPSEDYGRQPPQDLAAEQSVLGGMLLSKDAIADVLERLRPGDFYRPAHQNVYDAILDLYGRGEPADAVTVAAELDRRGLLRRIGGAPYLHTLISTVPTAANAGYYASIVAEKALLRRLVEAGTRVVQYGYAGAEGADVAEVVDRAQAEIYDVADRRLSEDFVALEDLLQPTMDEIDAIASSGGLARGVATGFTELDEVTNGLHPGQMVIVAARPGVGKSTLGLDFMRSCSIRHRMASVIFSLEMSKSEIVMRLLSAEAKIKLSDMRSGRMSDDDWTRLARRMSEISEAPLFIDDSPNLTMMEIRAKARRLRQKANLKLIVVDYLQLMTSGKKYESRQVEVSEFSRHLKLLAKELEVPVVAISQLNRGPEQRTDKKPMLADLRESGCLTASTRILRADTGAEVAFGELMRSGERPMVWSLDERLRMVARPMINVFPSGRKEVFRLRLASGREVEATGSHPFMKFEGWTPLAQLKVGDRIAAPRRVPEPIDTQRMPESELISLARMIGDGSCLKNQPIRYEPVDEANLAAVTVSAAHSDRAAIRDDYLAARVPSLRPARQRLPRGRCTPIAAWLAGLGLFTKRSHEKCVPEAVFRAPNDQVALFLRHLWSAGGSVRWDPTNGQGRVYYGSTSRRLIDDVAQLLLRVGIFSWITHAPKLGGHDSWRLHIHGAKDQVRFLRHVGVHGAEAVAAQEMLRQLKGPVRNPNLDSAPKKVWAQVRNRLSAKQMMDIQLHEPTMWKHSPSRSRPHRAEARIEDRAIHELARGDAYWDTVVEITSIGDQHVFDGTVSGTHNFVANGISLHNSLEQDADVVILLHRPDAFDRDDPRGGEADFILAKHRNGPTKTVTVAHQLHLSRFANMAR

Protein RecA = target: T4, Protein RecA (Mycobacterium tuberculosis, UniProt P9WHJ3); experiment: Fluorescence Cell-Free Homogeneous Dose Retest to Identify Inhibitors of RecA-Intein Splicing Activity. [Related pubchem assays (depositor defined):AID2097, AID2223, AID489010, AID492950]; assay type: functional
T4 sequence (P9WHJ3 whole entry): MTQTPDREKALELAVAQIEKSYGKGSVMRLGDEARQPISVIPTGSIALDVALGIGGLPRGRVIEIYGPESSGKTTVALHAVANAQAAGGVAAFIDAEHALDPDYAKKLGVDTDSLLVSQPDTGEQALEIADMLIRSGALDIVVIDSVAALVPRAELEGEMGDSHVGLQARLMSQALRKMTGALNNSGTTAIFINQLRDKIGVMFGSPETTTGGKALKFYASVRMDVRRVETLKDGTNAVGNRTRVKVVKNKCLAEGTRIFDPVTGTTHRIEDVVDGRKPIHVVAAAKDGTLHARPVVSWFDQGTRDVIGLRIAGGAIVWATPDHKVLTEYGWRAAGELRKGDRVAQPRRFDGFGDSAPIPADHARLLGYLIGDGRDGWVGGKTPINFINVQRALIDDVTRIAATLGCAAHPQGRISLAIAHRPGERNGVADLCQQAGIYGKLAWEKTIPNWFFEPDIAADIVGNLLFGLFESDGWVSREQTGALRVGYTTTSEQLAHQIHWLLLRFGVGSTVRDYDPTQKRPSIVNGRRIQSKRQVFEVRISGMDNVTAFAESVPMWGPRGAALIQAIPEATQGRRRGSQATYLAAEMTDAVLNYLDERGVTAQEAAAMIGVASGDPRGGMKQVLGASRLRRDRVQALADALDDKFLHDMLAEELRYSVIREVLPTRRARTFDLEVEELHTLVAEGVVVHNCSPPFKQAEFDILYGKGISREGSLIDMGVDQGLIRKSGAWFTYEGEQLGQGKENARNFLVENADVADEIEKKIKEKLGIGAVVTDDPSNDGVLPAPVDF

[8] = target: T5, Heat shock factor protein 1 (Mus musculus, UniProt P38532); experiment: HSF1 potentiators in luciferase reporter cells, confirmation, cell-based, NIH3T3, luminescence, dose retest (AID 435004); assay type: functional;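 note: stress induced by proteasome inhibitor MG132 added 30 min after compound; luciferase reporter driven by HSF1 response element in NIH3T3 cells; actives raise luminescence as potentiators of the MG132 stress response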
T5 sequence (P38532 whole entry): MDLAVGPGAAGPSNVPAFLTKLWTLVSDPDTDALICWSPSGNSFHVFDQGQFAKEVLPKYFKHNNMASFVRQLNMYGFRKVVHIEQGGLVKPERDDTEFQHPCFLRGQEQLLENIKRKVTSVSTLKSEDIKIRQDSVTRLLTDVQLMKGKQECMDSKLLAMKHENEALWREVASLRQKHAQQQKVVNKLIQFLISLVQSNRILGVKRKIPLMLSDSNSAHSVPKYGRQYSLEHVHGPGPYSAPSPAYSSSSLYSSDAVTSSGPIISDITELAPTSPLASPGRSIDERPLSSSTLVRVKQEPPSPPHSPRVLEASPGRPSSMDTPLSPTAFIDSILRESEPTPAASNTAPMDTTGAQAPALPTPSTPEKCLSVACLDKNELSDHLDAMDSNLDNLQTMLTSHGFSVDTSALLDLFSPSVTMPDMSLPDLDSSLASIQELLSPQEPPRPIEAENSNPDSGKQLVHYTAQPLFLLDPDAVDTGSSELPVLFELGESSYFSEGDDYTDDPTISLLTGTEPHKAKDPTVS

[9] = target: Peroxisome proliferator-activated receptor gamma/Nuclear receptor coactivator 3 (Homo sapiens, UniProt P37231); assay type: functional;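 note: agonist potency for raising coactivator recruitment to the receptor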
Hexokinase-1 = Hexokinase-1 (Homo sapiens, UniProt P19367); experiment: hexokinase 1 activators, dose response, selectivity assay for HKDC1 activator project, biochemical (AID 504762); assay type: functional
Hexokinase-1, sequence (P19367 whole entry): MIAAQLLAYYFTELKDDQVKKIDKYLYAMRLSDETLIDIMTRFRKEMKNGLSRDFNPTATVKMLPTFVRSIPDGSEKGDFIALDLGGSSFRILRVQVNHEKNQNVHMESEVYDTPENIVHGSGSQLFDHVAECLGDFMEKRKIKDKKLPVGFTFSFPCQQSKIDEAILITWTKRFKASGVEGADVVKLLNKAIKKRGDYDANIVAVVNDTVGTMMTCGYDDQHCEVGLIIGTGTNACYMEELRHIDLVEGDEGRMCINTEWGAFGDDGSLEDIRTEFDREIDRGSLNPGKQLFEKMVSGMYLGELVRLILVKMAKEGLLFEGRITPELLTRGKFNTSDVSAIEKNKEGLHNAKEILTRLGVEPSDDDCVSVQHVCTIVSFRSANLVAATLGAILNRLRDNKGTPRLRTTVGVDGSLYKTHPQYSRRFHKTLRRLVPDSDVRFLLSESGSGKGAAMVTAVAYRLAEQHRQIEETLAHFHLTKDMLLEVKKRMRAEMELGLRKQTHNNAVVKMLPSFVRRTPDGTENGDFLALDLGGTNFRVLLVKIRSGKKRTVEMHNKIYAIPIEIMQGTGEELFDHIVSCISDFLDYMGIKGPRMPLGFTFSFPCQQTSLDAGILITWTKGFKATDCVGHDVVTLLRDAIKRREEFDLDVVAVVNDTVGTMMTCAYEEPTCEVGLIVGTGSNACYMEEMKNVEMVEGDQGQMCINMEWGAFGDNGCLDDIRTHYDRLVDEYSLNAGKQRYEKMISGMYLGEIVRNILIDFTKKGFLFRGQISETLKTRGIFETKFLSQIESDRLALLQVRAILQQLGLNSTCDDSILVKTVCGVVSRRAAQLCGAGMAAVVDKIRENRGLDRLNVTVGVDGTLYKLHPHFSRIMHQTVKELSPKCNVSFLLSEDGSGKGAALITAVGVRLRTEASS

HEK293 [10] = experiment: cells; conditions: Homo sapiens
[11] = target: Peroxisome proliferator-activated receptor gamma/Nuclear receptor coactivator 1 (Homo sapiens, UniProt P37231); assay type: functional;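 note: agonist potency as compounds enhance coactivator SRC-1 recruitment to PPARgamma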
Hexokinase HKDC1 = target: T6, Hexokinase HKDC1 (Homo sapiens, UniProt Q2TB90); experiment: HKDC1 hexokinase activators, dose response, biochemical, W721R variant (AID 504730); assay type: functional
T6 sequence (Q2TB90 whole entry): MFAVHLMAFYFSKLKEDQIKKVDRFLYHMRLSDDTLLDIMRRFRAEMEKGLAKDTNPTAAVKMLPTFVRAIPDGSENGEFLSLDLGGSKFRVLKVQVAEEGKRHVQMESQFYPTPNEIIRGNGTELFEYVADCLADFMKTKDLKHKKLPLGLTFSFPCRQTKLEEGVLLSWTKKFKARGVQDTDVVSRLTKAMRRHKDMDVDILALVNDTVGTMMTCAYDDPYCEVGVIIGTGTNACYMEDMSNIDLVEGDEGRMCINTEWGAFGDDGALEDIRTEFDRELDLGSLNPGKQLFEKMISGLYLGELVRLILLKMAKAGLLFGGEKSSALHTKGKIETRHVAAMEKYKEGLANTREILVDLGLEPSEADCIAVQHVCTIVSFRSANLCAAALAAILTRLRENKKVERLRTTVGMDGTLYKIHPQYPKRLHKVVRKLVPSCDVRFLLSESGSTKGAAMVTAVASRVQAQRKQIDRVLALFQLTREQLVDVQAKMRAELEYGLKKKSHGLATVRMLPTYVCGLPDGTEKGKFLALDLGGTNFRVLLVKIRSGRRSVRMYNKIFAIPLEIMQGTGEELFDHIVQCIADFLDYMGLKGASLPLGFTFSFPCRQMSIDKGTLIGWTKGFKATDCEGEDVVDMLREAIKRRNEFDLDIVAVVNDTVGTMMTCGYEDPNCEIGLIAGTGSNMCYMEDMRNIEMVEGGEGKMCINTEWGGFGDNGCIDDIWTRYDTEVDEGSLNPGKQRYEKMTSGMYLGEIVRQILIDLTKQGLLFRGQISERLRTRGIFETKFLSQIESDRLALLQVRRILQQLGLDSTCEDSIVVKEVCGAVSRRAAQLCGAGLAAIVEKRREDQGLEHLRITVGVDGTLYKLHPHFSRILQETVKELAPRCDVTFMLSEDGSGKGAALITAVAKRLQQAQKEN

HEK293 [12] = experiment: cells; conditions: Homo sapiens; remark: listed apart in the source
[13] = target: Peroxisome proliferator-activated receptor gamma/Nuclear receptor coactivator 2 (Homo sapiens, UniProt P37231); assay type: functional;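 note: agonist potency for raising coactivator recruitment to the receptor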
[14] = inhibitors of intracellular T. cruzi replication, confirmation, NIH3T3 host cells, beta-gal luminescence (AID 2044); assay type: functional, cell-based;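 note: intracellular parasites grown in NIH/3T3 mouse fibroblasts as host cells; luminescent beta-galactosidase reporter signal from transgenic T. cruzi replicating inside host cells; inhibitors lower the luminescence signal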
[15] = target: Voltage-dependent T-type calcium channel subunit alpha-1H (Homo sapiens, UniProt O95180); experiment: Cav3.2 T-type channel inhibitors, synthesized analogs, SAR follow-up, cell-based, synthetic library set 2, HEK293 HH8, Fluo-4 (AID 493023); assay type: functional
Voltage-dependent T-type calcium channel subunit alpha-1H, sequence (O95180 whole entry): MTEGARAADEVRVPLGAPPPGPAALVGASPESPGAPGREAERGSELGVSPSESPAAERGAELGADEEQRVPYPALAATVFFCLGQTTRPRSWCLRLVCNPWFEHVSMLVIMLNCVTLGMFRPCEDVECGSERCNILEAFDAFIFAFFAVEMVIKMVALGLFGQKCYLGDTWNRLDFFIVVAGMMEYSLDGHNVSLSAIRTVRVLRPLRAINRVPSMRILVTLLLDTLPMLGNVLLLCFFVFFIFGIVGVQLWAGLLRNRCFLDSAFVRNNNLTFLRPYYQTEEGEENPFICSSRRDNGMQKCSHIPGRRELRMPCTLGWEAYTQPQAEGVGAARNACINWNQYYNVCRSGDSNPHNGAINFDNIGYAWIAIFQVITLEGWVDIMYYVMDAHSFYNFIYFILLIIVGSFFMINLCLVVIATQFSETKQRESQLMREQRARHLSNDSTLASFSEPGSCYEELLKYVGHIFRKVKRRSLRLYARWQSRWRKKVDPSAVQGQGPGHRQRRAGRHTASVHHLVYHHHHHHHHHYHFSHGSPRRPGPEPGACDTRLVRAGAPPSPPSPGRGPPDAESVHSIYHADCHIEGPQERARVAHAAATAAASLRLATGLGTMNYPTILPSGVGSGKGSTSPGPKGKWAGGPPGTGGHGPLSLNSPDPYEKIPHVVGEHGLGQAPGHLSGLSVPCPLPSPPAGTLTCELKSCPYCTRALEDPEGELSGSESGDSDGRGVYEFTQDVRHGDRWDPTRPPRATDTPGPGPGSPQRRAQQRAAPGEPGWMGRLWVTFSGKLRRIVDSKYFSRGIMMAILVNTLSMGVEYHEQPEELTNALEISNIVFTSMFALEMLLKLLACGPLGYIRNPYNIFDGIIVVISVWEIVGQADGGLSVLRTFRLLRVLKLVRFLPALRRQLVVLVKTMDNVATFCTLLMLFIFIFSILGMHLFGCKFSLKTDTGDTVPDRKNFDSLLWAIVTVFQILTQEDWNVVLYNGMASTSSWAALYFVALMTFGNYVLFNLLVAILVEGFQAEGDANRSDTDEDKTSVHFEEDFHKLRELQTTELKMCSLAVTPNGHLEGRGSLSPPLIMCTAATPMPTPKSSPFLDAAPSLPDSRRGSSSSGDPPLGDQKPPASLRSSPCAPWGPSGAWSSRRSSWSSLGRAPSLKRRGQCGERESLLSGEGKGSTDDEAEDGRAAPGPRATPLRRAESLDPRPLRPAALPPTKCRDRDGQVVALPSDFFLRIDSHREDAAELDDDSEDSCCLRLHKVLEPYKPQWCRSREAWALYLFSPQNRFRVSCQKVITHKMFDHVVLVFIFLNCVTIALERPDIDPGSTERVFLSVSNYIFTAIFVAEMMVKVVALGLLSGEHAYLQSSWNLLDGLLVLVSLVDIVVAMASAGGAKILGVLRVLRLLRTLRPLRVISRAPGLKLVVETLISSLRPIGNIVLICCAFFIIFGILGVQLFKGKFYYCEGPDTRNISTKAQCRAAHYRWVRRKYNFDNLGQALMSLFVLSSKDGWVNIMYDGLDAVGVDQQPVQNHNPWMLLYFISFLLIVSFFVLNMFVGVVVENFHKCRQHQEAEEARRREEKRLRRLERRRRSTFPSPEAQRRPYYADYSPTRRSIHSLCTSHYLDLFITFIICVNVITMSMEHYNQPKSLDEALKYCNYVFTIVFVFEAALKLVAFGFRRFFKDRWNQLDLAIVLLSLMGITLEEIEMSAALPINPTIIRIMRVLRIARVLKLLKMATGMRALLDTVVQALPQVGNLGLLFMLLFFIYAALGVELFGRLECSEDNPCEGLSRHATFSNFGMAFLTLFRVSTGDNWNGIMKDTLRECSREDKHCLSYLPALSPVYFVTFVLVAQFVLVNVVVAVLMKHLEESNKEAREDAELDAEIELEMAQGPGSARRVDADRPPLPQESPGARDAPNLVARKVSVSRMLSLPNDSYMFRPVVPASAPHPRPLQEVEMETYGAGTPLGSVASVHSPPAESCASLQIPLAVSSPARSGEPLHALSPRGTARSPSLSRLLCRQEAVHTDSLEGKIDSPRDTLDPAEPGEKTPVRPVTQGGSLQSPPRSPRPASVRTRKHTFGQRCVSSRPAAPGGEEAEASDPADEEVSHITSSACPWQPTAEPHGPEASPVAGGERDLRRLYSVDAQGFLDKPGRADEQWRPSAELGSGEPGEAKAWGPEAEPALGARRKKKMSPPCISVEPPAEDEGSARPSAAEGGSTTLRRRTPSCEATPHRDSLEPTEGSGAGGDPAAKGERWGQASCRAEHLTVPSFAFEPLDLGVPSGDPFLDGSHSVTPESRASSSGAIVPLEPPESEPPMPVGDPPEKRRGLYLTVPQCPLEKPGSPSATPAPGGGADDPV

Coagulation factor XII = target: T7, Coagulation factor XII (Homo sapiens, UniProt P00748); experiment: Factor XIIa Dose Response Confirmation from Single Well HTS. [Related pubchem assays (depositor defined):AID701]; assay type: functional
T7 sequence (P00748 whole entry): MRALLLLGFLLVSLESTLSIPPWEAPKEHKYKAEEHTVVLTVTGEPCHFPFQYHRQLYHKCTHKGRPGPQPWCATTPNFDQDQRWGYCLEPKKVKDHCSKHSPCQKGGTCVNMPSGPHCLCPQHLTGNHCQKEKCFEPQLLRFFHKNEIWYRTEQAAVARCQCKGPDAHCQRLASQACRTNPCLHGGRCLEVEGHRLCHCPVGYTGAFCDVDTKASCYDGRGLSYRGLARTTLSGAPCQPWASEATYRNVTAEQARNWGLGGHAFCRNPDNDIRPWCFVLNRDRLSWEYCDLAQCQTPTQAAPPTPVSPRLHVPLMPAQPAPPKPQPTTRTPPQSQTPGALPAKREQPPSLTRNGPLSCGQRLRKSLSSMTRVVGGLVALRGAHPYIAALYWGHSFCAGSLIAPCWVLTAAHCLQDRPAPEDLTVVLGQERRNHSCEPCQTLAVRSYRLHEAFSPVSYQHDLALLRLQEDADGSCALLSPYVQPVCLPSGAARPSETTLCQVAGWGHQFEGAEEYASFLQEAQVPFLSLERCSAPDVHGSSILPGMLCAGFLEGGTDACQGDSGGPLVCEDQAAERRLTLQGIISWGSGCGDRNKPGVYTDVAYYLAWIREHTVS

## Cc1ccc(CS(=O)(=O)c2ncc(Cl)c(C(=O)Nc3nnc(C(C)C)s3)n2)cc1
[1]
  CC50: 28.3 µM (active)
[2]
  AC50: 4.07 µM (active)
Vero
  CC50: 29.1 µM (active)
Genome polyprotein
  IC50: > 100 µM (active)
Bcl-2-related protein A1
  IC50: > 20 µM (inactive)
[3]
  AC50: 1.52 µM (active)
[4]
  IC50: > 20 µM (inactive)
[5]
  IC50: 10.7 µM (active)
[6]
  IC50: 3.27 µM (active)
[7]
  AC50: 2.95 µM (active)
Protein RecA
  EC50: 0.717 µM (active)

## O=C(CSc1cccc2cccnc12)N/N=C/c1cccnc1
[8]
  EC50: 6.99 µM (active)
[9]
  EC50: > 79.4 µM (not active)
Hexokinase-1
  EC50: > 80 µM (inactive)
HEK293 [10]
  EC50: > 59.6 µM (inactive)
[11]
  EC50: > 79.4 µM (not active)
Hexokinase HKDC1
  EC50: 27.6 µM (inactive)
HEK293 [12]
  EC50: > 59.6 µM (inactive)
[13]
  EC50: > 79.4 µM (not active)
[14]
  EC50: 0.579 µM (active)

## O=C(NC1CCC2CN(Cc3ccccc3)CC21)c1ccc(Cl)cc1Cl (configuration not stated)
[15]
  EC50: 10 µM (active)

## COC(=O)[C@H](C)NC(=O)NC(C)CCc1ccccc1 (some centres not stated)
Coagulation factor XII
  IC50: > 50 µM (inactive)
